According to US12077503B2, “Substituted cyclic amides and their use as herbicides” (FMC CORPORATION, priority 2015, dated 2024):
Read-outs that look alike come from different tables or passages of the source.

Legend:
Assay type in all cases: in vivo
Kochia (Kochia scoparia) = experiment: Test A preemergence; settings: Bassia scoparia, pre-emergence, 240 h, preemergence, read-out: Kochia plant response rating; for pest or weed control at 125 g/ha: 125 g ai/ha; for pest or weed control at 500 g/ha: 500 g ai/ha
In short: (§1)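 Seeds sprayed preemergence with a directed soil spray, or plants at 2 to 10 cm height and one- to two-leaf stage sprayed postemergence, with test chemicals in a non-phytotoxic solvent mixture containing surfactant, in loam soil–sand blend. Injury rated visually against untreated controls after about 10 d in greenhouse, 0 (no effect) to 100 (complete control).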

[1] = test system: barnyardgrass (Echinochloa crus-galli); experiment: Test A preemergence; settings: Echinochloa crus-galli, pre-emergence, 240 h, preemergence, read-out: Barnyardgrass plant response rating; for pest or weed control at 125 g/ha: 125 g ai/ha; for pest or weed control at 500 g/ha: 500 g ai/ha
In short: as §1

[2] = test system: giant foxtail (Setaria faberii); experiment: Test A preemergence; settings: Setaria faberi, pre-emergence, 240 h, preemergence, read-out: Foxtail, Giant plant response rating; for pest or weed control at 125 g/ha: 125 g ai/ha; for pest or weed control at 500 g/ha: 500 g ai/ha
In short: as §1

[3] = test system: pigweed (Amaranthus retroflexus); experiment: Test A preemergence; settings: Amaranthus retroflexus, pre-emergence, 240 h, preemergence, read-out: Pigweed plant response rating; for pest or weed control at 125 g/ha: 125 g ai/ha; for pest or weed control at 500 g/ha: 500 g ai/ha
[4] = test system: ragweed (common ragweed, Ambrosia elatior); experiment: Test A preemergence; settings: Ambrosia artemisiifolia, pre-emergence, 240 h, preemergence, read-out: Ragweed plant response rating; for pest or weed control at 500 g/ha: 500 g ai/ha
In short: as §1

[5] = test system: ryegrass, Italian (Italian ryegrass, Lolium multiflorum); experiment: Test A preemergence; settings: Lolium multiflorum, pre-emergence, 240 h, preemergence, read-out: Ryegrass, Italian plant response rating; for pest or weed control at 500 g/ha: 500 g ai/ha
In short: as §1

[6] = test system: blackgrass (Alopecurus myosuroides); experiment: Test A postemergence; settings: Alopecurus myosuroides, post-emergence, 240 h; for pest or weed control at 125 g/ha: 125 g ai/ha
In short: as §1

corn (Zea mays) = experiment: Test A postemergence; settings: Zea mays, post-emergence, 240 h
In short: as §1

[7] = test system: pigweed (Amaranthus retroflexus); experiment: Test A postemergence; settings: Amaranthus retroflexus, post-emergence, 240 h; for pest or weed control at 125 g/ha: 125 g ai/ha
In short: as §1

[8] = test system: ragweed (common ragweed, Ambrosia elatior); experiment: Test A postemergence; settings: Ambrosia artemisiifolia, post-emergence, 240 h; for pest or weed control at 125 g/ha: 125 g ai/ha
In short: as §1

[9] = test system: ryegrass, Italian (Italian ryegrass, Lolium multiflorum); experiment: Test A postemergence; settings: Lolium multiflorum, post-emergence, 240 h; for pest or weed control at 125 g/ha: 125 g ai/ha
In short: as §1

[10] = test system: barnyardgrass (Echinochloa crus-galli); experiment: Test B flooded paddy test; settings: Echinochloa crus-galli, Flood, 250 g ai/ha, read-out: Barnyardgrass plant response rating
In short: (§2)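 Plants at 2-leaf stage flooded to 3 cm above soil, with compounds applied directly to paddy water and that depth maintained. Plants kept in greenhouse 13–15 d. Visual rating versus controls on a 0 (no effect) to 100 (complete control) scale.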

[11] = test system: ducksalad (Heteranthera limosa); experiment: Test B flooded paddy test; settings: Heteranthera limosa, Flood, 250 g ai/ha, read-out: Ducksalad plant response rating
In short: as §2

rice (Oryra sativa) = experiment: Test B flooded paddy test; settings: Oryza sativa, Flood, 250 g ai/ha, read-out: Rice plant response rating
In short: as §2

[12] = test system: sedge, umbrella (small-flower umbrella sedge, Cyperus difformis); experiment: Test B flooded paddy test; settings: Cyperus difformis, Flood, 250 g ai/ha, read-out: Sedge, Umbrella plant response rating
In short: as §2

[13] = 0 to 100 scale where 0 is no effect and 100 is complete control
[14] = visual injury rating about 10 d after treatment, 0 to 100 scale (0 no effect, 100 complete control)
[15] = scale of 0 to 100 where 0 is no effect and 100 is complete control
[16] = 0 to 100 scale where 0 is no effect and 100 is complete control, approx. 10 d
[17] = 125 g ai/ha, 0 to 100 scale where 0 is no effect and 100 is complete control, approx. 10 d

For `Cc1cc([C@H]2CN(C)C(=O)[C@@H]2C(=O)Nc2ccc(F)c(F)c2F)ccc1Cl` [Compound 931], the pest or weed control at 125 g/ha (Kochia (Kochia scoparia); [13]) was 90%, the pest or weed control at 500 g/ha (Kochia (Kochia scoparia); [14]) was 90% and the pest or weed control at 125 g/ha [1, 13] was 90%. For the same molecule, the pest or weed control at 500 g/ha [1, 14] was 90%, the pest or weed control at 125 g/ha [2, 13] was 90% and the pest or weed control at 500 g/ha [2, 14] was 90%. The pest or weed control at 125 g/ha [3, 13] was 30%, the pest or weed control at 500 g/ha [3, 14] was 40% and the pest or weed control at 500 g/ha [4, 14] was 30%. It also gave a pest or weed control at 500 g/ha [5, 14] of 70%, a pest or weed control at 125 g/ha ([6]; Postemergence, visual injury after approximately 10 d, 0 to 100 scale where 0 is no effect and 100 is complete control, read-out: Plant response rating, Blackgrass) of 20% and a Corn plant response rating (crop injury, 0 = no effect, 100 = complete kill) at 125 g/ha (corn (Zea mays); 125 g ai/ha, Postemergence, visual injury after approximately 10 d, 0 to 100 scale where 0 is no effect and 100 is complete control) of 70%. For the same molecule, the pest or weed control at 125 g/ha ([7]; Postemergence, visual injury after approximately 10 d, 0 to 100 scale where 0 is no effect and 100 is complete control, read-out: Plant response rating, Pigweed) was 20%, the pest or weed control at 125 g/ha ([8]; Postemergence, visual injury after approximately 10 d, 0 to 100 scale where 0 is no effect and 100 is complete control, read-out: Plant response rating, Ragweed) was 0% and the pest or weed control at 125 g/ha ([9]; Postemergence, visual injury after approximately 10 d, 0 to 100 scale where 0 is no effect and 100 is complete control, read-out: Plant response rating, Ryegrass, Italian) was 30%. The pest or weed control at 250 g/ha [10, 15] was 65%, the pest or weed control at 250 g/ha [11, 15] was 60% and the pest or weed control at 250 g/ha (rice (Oryra sativa); [15]) was 0%. It also gave a pest or weed control at 250 g/ha [12, 15] of 0%.

Work on `Cc1nc([C@H]2CNC(=O)[C@@H]2C(=O)Nc2ccccc2F)cs1` [Compound 1179] yielded a pest or weed control at 125 g/ha (Kochia (Kochia scoparia); [16]) of 0%, a pest or weed control at 500 g/ha (Kochia (Kochia scoparia); [13]) of 0% and a pest or weed control at 125 g/ha [1, 16] of 0%. For the same molecule, the pest or weed control at 500 g/ha [1, 13] was 0%, the pest or weed control at 125 g/ha [2, 16] was 0% and the pest or weed control at 500 g/ha [2, 13] was 0%. For the same molecule, the pest or weed control at 125 g/ha [3, 16] was 0%, the pest or weed control at 500 g/ha [3, 13] was 0% and the pest or weed control at 125 g/ha [4, 17] was 0%. The pest or weed control at 500 g/ha [4, 13] was 0%, the pest or weed control at 125 g/ha [5, 17] was 0% and the pest or weed control at 500 g/ha [5, 13] was 0%. The pest or weed control at 125 g/ha ([6]; postemergence, visual injury vs untreated controls after approx. 10 d, 0 = no effect, 100 = complete control, read-out: Blackgrass plant response rating (0 to 100 scale)) was 0%, the pest or weed control at 500 g/ha ([6]; 500 g ai/ha, postemergence, 0 to 100 scale, 0 is no effect, 100 is complete control, read-out: Blackgrass plant response rating) was 0% and the plant injury at 125 g/ha (corn (Zea mays); 125 g ai/ha, postemergence, visual injury vs untreated controls after approx. 10 d, 0 = no effect, 100 = complete control, read-out: Corn plant response rating (0 to 100 scale)) was 0%. It also gave a plant injury at 500 g/ha (corn (Zea mays); 500 g ai/ha, postemergence, 0 to 100 scale, 0 is no effect, 100 is complete control, read-out: Corn plant response rating) of 0%, a pest or weed control at 125 g/ha ([7]; postemergence, visual injury vs untreated controls after approx. 10 d, 0 = no effect, 100 = complete control, read-out: Pigweed plant response rating (0 to 100 scale)) of 0% and a pest or weed control at 500 g/ha ([7]; 500 g ai/ha, postemergence, 0 to 100 scale, 0 is no effect, 100 is complete control, read-out: Pigweed plant response rating) of 0%. The pest or weed control at 125 g/ha ([8]; postemergence, visual injury vs untreated controls after approx. 10 d, 0 = no effect, 100 = complete control, read-out: Ragweed plant response rating (0 to 100 scale)) was 0%, the pest or weed control at 500 g/ha ([8]; 500 g ai/ha, postemergence, 0 to 100 scale, 0 is no effect, 100 is complete control, read-out: Ragweed plant response rating) was 0% and the pest or weed control at 125 g/ha ([9]; postemergence, visual injury vs untreated controls after approx. 10 d, 0 = no effect, 100 = complete control, read-out: Ryegrass, Italian plant response rating (0 to 100 scale)) was 0%. For the same molecule, the pest or weed control at 500 g/ha ([9]; 500 g ai/ha, postemergence, 0 to 100 scale, 0 is no effect, 100 is complete control, read-out: Ryegrass, Italian plant response rating) was 0%, the pest or weed control at 250 g/ha [10, 13] was 0% and the pest or weed control at 250 g/ha [11, 13] was 40%. For the same molecule, the pest or weed control at 250 g/ha (rice (Oryra sativa); [13]) was 0% and the pest or weed control at 250 g/ha [12, 13] was 0%.
